The subject of data set [1] is A-549 cells. The data set can be described thus: Sub-G1 fraction by PI flow cytometry, A-549. As to conditions: A-549, 50 µM, 72 h. The class given is cell-based, human. Here is the method: Figure 2 Effect of eurochevalierine on cell cycle distribution. Cells were treated with 50 µM eurochevalierine for 72 h and then stained with propidium iodide (PI), and DNA content was measured by flow cytometry. (a) Cell cycle distribution profile in A-549 cells. Results of three independent experiments are represented on the same graph. (b) Quantification of the number of cells in sub-G1 fraction as a percentage of the total cell population. Results are expressed as mean ± SD of at least three independent experiments.
Cells were collected, fixed, and stained with the APO AF TUNEL detection kit (BD, Erembodegem, Belgium) allowing analysis of both apoptosis and cell cycle at the same time. The experiment was conducted accordingly to the procedure of the manufacturer. Data were obtained through flow cytometry with a Cell Lab Quanta apparatus (Analis, Suarlee, Belgium).
Background: A flow cytometer gives signals particle by particle.

Data set [2] has as its system panel of cancer cell lines. Set-up: method as in PMID 22976482. As to conditions: read-out: mean IC50 for the growth inhibition of cancer cells; cited from earlier work.
Data set [3] has as its system total HDAC activity (K-562 nuclear extracts). Put plainly: In vitro total HDAC activity using K-562 nuclear extracts. The class given is biochemical, human. To be noted: 100 µM. As for the experimental part: (§1) (a) In vitro total HDAC activity was evaluated using K-562 nuclear extracts in the presence of various concentrations of eurochevalierine. (b) Selective in vitro HDAC activity assays were carried out using selected recombinant HDAC proteins in the presence of various concentrations of eurochevalierine. Results are reported as percent of DMSO vehicle control and expressed as the mean ± SD of three independent experiments. * and ** indicate p < 0.05 and p < 0.01 versus untreated cells, respectively.

In data set [4] the test system is primary human CD34+ stem/progenitor cells. The data set can be described thus: Growth and viability of primary CD34+ stem/progenitor cells. The class given is cell-based. Here is the method:
Figure 7 Only very high concentrations of eurochevalierine impair the growth of healthy primary human CD34^+ stem/progenitor cells. CD34^+ cells were incubated with the indicated concentrations of eurochevalierine and cell growth (a) and viability (b) were assessed after 72 h of treatment. Results correspond to the mean ± SD of three independent experiments with * and ** indicate p < 0.05 and p < 0.01 versus control.
Primary CD34^+ progenitor/stem cells were isolated from human umbilical cord blood obtained from the Clinique Bohler (Hôpitaux Robert Schuman, Luxembourg, Luxembourg) with the written informed consent of parents with the approval of the National Research Ethics Committee of Luxembourg. First, mononucleated cells were isolated by Ficoll™ (GE Healthcare, Roosendaal, The Netherlands) density gradient centrifugation. CD34^+ cells were then purified out from mononucleated cells using magnetic cell sorting following the manufacturer’s instructions (MACS Miltenyi, Utrecht, The Netherlands).
High purity CD34^+ cells were treated after 3 days of amplification in Stemline® II Hematopoietic Stem cell Expansion Medium (Sigma) supplemented with 1% antibiotic-antimycotic (BioWhittaker®, Lonza, Verviers, Belgium), 4 mM L-glutamine (BioWhittaker®), 50 ng/mL stem cell factor (ReliaTech, Wolfenbüttel, Germany), and 10 ng/mL interleukin 3 (Reliatech, Wolfenbüttel, Germany). Other cell models were cultured in RPMI1640 (BioWhittaker®) supplemented with 10% heat-inactivated fetal calf serum (BioWhittaker®) and 1% antibiotic-antimycotic. Cell lines were cultured at 37 °C in a humid atmosphere and at 5% CO2.
PBMCs and CD34^+ cells were processed through a semi-automated image-based cell analyzer (Cedex XS Innovatis, Roche, Luxembourg), which provides information about cell concentration and viability based on the Trypan Blue exclusion method.

For data set [5], the target named is T1, HDAC6 (Homo sapiens, UniProt Q9UBN7).
T1 sequence (Q9UBN7 1-1215): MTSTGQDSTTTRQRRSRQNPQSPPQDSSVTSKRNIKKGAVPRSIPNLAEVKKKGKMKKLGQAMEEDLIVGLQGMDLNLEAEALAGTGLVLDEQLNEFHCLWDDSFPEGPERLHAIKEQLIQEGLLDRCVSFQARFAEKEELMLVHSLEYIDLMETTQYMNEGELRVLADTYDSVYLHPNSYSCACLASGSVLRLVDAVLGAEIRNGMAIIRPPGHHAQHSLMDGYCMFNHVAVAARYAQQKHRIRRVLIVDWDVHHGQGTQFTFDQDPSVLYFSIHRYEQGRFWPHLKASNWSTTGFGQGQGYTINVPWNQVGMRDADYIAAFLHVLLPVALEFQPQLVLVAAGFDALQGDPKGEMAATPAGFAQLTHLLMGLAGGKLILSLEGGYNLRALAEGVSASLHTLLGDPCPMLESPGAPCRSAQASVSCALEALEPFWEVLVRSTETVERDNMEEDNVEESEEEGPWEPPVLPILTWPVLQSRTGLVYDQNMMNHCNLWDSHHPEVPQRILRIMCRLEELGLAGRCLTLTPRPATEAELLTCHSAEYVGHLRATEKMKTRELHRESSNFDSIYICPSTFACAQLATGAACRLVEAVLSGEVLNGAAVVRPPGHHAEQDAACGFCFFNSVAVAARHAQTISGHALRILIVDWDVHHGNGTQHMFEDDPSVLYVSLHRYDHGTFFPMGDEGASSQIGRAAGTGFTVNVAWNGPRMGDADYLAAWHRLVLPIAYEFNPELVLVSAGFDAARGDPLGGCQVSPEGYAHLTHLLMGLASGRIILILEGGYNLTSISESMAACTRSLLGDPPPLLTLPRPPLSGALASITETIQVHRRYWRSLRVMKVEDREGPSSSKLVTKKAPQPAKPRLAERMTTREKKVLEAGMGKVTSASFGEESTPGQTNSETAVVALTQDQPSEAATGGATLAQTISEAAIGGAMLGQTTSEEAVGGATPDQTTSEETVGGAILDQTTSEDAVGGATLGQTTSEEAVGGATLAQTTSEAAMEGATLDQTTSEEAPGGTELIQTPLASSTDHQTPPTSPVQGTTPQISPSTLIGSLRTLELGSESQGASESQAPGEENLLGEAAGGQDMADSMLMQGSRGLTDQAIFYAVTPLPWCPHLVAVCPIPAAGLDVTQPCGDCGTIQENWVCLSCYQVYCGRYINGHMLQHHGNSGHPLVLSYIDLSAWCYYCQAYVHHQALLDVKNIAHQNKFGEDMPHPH
Put plainly: Selective in vitro HDAC activity assay, recombinant HDAC6. The class given is biochemical. As for the experimental part:
as §1

Consider one compound from PMC6017873 (Molecules : A Journal of Synthetic Chemistry and Natural …, 2018).

A word on the IC50: it is the concentration at which inhibition is half-maximal. The term inhibition denotes the share of the control response that was lost under treatment. Take `C=C(C)[C@@H]1CC[C@@H](C)[C@@]2(O)[C@@H]1C=C(C)[C@@H](OC(C)=O)[C@@H]2OC(=O)[C@H](CC(=O)c1ccccc1NC)NC=O` [Eurochevalierine, eurochevalierine]: the sub-G1 fraction entry in data set [1] was “did not increase the sub-G1 fraction”. The IC50 in data set [2] is 28 µM; in data set [4] (Homo sapiens, 72 h, read-out: IC50 growth inhibition of CD34+ cells) it was greater than 200 µM. For the same compound, in data set [3], the “inhibition of total HDAC activity” value was “about 33%”. Moreover, in data set [4] (200 µM, 72 h), the “impact on CD34+ cell viability” value was “minor impact on cell viability”. Also, the inhibition at 200 µM in data set [4] (Homo sapiens, 200 µM, 72 h, read-out: maximum growth inhibition of CD34+ cells) is roughly 30%. The “selectivity factor cancer cells versus normal proliferating CD34+ cells” value in data set [4] (IC50 in healthy cells (>200 µM) versus mean IC50 in cancer cells (28 µM)) is greater than 7. In data set [5], the inhibition at 100 µM was roughly 36%.
